Activity calls are given as the source filed them. The rule behind the calls is not given here.
Tests used:
[1] = test system: Staphylococcus aureus; experiment: Antibiofilm activity against methicillin-resistant Staphylococcus aureus Mu50 at 100 uM; format: functional
[2] = test system: Staphylococcus aureus; experiment: Antibiofilm activity against methicillin-resistant Staphylococcus aureus JE2 at 100 uM; format: functional
[3] = target: T1, Signal transduction protein TRAP (Staphylococcus aureus (strain Mu50 / ATCC 700699)) (UniProt Q7A2Q4); experiment: Inhibition of methicillin-resistant Staphylococcus aureus Mu50 TRAP assessed as reduction in vancomycin MIC at 100 uM; settings: Staphylococcus aureus subsp. aureus Mu50
T1 sequence (whole entry): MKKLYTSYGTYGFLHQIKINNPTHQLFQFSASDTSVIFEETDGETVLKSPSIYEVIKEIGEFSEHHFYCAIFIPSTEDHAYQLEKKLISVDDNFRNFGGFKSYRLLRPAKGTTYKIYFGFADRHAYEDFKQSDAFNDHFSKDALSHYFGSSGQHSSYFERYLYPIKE

[4] = test system: Staphylococcus aureus; experiment: Inhibition of methicillin-resistant Staphylococcus aureus JE2 TRAP assessed as reduction in vancomycin MIC at 100 uM
[5] = target: T1, Signal transduction protein TRAP (Staphylococcus aureus (strain Mu50 / ATCC 700699)); experiment: (§1) Inhibition of methicillin-resistant Staphylococcus aureus Mu50 TRAP assessed as potentiation of vancomycin-induced antibiofilm activity by measuring vancomycin-mediated reduction in colony forming units at 25 uM cotreated with vancomycin for 24 hrs (reference value: 30 +/- 14%); settings: Staphylococcus aureus subsp. aureus Mu50
[6] = target: T1, Signal transduction protein TRAP (Staphylococcus aureus (strain Mu50 / ATCC 700699)); experiment: as §1, with “pretreated for 4 hrs prior to” for “cotreated with”, “addition measured after 20” for “for 24”; settings: Staphylococcus aureus subsp. aureus Mu50
[7] = test system: Staphylococcus aureus; experiment: Growth inhibition of methicillin-resistant Staphylococcus aureus Mu50
[8] = test system: Plasma; experiment: Metabolic stability in human plasma by UPLC-MS/MS analysis; format: ADME, cell-free
[9] = Drug metabolism assessed as CYP450-mediated compound degradation in human liver microsomes at 5 uM using NADPH as cofactor by UPLC-MS/MS analysis; format: ADME
[10] = Drug metabolism assessed as UGT-mediated compound degradation in human liver microsomes at 5 uM using UDPGA as cofactor by UPLC-MS/MS analysis; format: ADME

| SMILES | inhibition [5] [%] | inhibition [6] [%] | MIC [7] [µM] | also measured |
| --- | --- | --- | --- | --- |
| O=C(NC[C@]1(O)CO[C@H](CN2C(=O)c3ccccc3C2=O)[C@H]1O)c1ccnnc1 |  |  |  | Activity [1]: inactive; Activity [2]: inactive; inhibition [3]: inactive; inhibition [4]: inactive |
| O=C(NC[C@H]1OC[C@@](O)(CNCc2ccccc2)[C@@H]1O)c1ccccc1Cl | 89 | 94 | > 500 |  |
| O=C(NC[C@H]1OC[C@@](O)(CNC(=O)C2CCCCC2)[C@@H]1O)c1ccccc1Cl | 55 | 85 | > 500 |  |
| O=C(NC[C@]1(O)CO[C@H](CNC(=O)c2ccccc2Cl)[C@H]1O)Nc1ccccc1 | 58 | 67 | > 500 |  |
| [N-]=[N+]=NC[C@]1(O)CO[C@H](CNC(=O)c2ccccc2Cl)[C@H]1O | 88 | 87 | > 500 |  |
| O=C(NC[C@]1(O)CO[C@H](CNC(=O)c2ccccc2Cl)[C@H]1O)c1ccccc1 | 80 | 85 | > 500 |  |
| COc1ccc(C(=O)NC[C@]2(O)CO[C@H](CNC(=O)c3ccccc3Cl)[C@H]2O)cc1 | 43 | 34 | > 500 |  |
| O=C(NC[C@]1(O)CO[C@H](CNC(=O)c2ccccc2Cl)[C@H]1O)c1cncnc1 | 35 | 36 | > 500 |  |
| O=C(CCc1ccccc1)NC[C@]1(O)CO[C@H](CNC(=O)c2ccccc2Cl)[C@H]1O | 18 | 35 | > 500 |  |
| O=C(NC[C@]1(O)CO[C@H](CN2C(=O)c3ccccc3C2=O)[C@H]1O)c1ccccc1Cl |  |  |  | Stability [8]: Stable; Activity [1]: inactive; Stability [9]: Unstable; Stability [10]: Stable; Activity [2]: inactive; inhibition [3]: inactive; inhibition [4]: inactive |
| O=C(NC[C@]1(O)CO[C@H](CNC(=O)c2ccccc2Cl)[C@H]1O)c1ccoc1 | 50 | 58 | > 500 |  |
| CN[C@H](CC(C)C)C(=O)N[C@H]1C(=O)N[C@@H](CC(N)=O)C(=O)N[C@H]2C(=O)N[C@H]3C(=O)N[C@H](C(=O)N[C@H](C(=O)O)c4cc(O)cc(O)c4-c4cc3ccc4O)[C@H](O)c3ccc(c(Cl)c3)Oc3cc2cc(c3O[C@@H]2O[C@H](CO)[C@@H](O)[C@H](O)[C@H]2O[C@H]2C[C@](C)(N)[C@H](O)[C@H](C)O2)Oc2ccc(cc2Cl)[C@H]1O | 30 | 30 |  |  |
| O=C(NC[C@]1(O)CO[C@H](CNC(=O)c2ccccc2Cl)[C@H]1O)c1ccccc1F | 56 | 38 | > 500 |  |
| O=C(NC[C@]1(O)CO[C@H](CNC(=O)c2ccccc2Cl)[C@H]1O)c1ccc(Cl)cc1 | 43 | 39 | > 500 |  |
| O=C(OC[C@H]1OC(O)[C@@](O)(COC(=O)c2cc(O)c(O)c(O)c2)[C@@H]1O)c1cc(O)c(O)c(O)c1 (some centres undefined) [HAMAMELITANNIN] | 31 | 35 | > 500 |  |
| O=C(NC[C@H]1OC[C@@](O)(CN2Cc3ccccc3C2=O)[C@@H]1O)c1ccccc1Cl | 73 | 92 | > 500 |  |
| O=C(NC[C@H]1OC[C@H](O)[C@@H]1O)c1ccccc1Cl | 81 | 80 | > 500 |  |
| O=C(NC[C@H]1OC[C@@](O)(CNS(=O)(=O)c2ccccc2)[C@@H]1O)c1ccccc1Cl | 44 | 65 | > 500 |  |
| CC(=O)NC[C@]1(O)CO[C@H](CNC(=O)c2ccccc2Cl)[C@H]1O | 82 | 70 | > 500 |  |
| Cc1ccc(C(=O)NC[C@]2(O)CO[C@H](CNC(=O)c3ccccc3Cl)[C@H]2O)cc1 | 58 | 48 | > 500 |  |

— ChEMBL document CHEMBL4041547, “Novel Potentiators for Vancomycin in the Treatment of Biofilm-Related MRSA Infections via a Mix and Match Approach” (ACS Med Chem Lett, 2017)
